Laboratory results: patent US20080031982A1 (Metaproteomics, LLC, priority 2006, published 2008)

Columns and labels:
[1] = biological target: MSSK1 (Homo sapiens, UniProt Q9UPE1); assay: KinaseProfiler Assay
[2] = tested on: 3T3-L1 adipocytes; assay: Lipogenesis in 3T3-L1 adipocytes (Oil Red O / BODIPY); type: cell-based, murine; conditions: relative to solvent and positive controls
Method: Prior to experiments, cells were cultured in DMEM containing 10% FBS-HI added 50 units penicillin/ml and 50 μg streptomycin/ml, and maintained in log phase prior to experimental setup. Cells were grown in a 5% CO2 humidified incubator at 37° C. Components of the pre-confluent medium included (1) 10% FBS/DMEM containing 4.5 g glucose/L; (2) 50 U/ml penicillin; and (3) 50 μg/ml streptomycin. Growth medium was made by adding 50 ml of heat inactivated FBS and 5 ml of penicillin/streptomycin to 500 ml DMEM. This medium was stored at 4° C. Before use, the medium was warmed to 37° C. in a water bath.
3T3-T1 cells were seeded at an initial density of 6×10^4 cells/cm^2 in 24-well plates. For two days, the cells were allowed grow to reach confluence. Following confluence, the cells were forced to differentiate into adipocytes by the addition of differentiation medium; this medium consisted of (1) 10% FBS/DMEM (high glucose); (2) 0.5 mM methylisobutylxanthine; (3) 0.5 μM dexamethasone and (4) 10 μg/ml insulin (MDI medium). After three days, the medium was changed to post-differentiation medium consisting of 10 μg/ml insulin in 10% FBS/DMEM.
Whenever fresh media were added, fresh test material was also added.
Oil Red 0 Staining—Triglyceride content of D6/D7-differentiated 3T3-L1 cells was estimated with Oil Red 0 according to the method of Kasturi and Joshi [Kasturi, R. and Joshi, V. C. […] Monolayer cells were washed with PBS (phosphate buffered saline, Mediatech) and fixed with 10% formaldehyde for ten minutes. Fixed cells were stained with an Oil Red 0 working solution of three parts 0.6% Oil Red O/isopropanol stock solution and two parts water for one hour and the excess stain was washed once with water. The resulting stained oil droplets were extracted from the cells with isopropanol and quantified by spectrophotometric analysis at 540 nm (MEL312e BIO-KINETICS READER, Bio-Tek Instruments, Winooski, Vt.).
Briefly, media were removed and cells were washed once with non-sterile PBS. A stock 1000× BODIPY/DMSO solution was made by dissolving 1 mg BODIPY in 1 ml DMSO (1,000 μg BODIPY/ml). […] One-hundred μl of this working solution (1 μg BODIPY) was added to each well of a 96-well microtiter plate. After 15 min on an orbital shaker (DS-500, VWR Scientific Products, South Plainfield, N.J.) at ambient temperature, the cells were washed with 100 μl PBS followed by the addition of 100 μl PBS for reading for spectrofluorometric determination of BODIPY incorporation into the cells.
Nonpolar lipid incorporation was represented relative to the nonpolar lipid accumulation of fully differentiated cells in the solvent controls.

[3] = biological target: T1, IKKβ (Homo sapiens, UniProt O14920); assay: KinaseProfiler Assay
T1 sequence (O14920 1-756): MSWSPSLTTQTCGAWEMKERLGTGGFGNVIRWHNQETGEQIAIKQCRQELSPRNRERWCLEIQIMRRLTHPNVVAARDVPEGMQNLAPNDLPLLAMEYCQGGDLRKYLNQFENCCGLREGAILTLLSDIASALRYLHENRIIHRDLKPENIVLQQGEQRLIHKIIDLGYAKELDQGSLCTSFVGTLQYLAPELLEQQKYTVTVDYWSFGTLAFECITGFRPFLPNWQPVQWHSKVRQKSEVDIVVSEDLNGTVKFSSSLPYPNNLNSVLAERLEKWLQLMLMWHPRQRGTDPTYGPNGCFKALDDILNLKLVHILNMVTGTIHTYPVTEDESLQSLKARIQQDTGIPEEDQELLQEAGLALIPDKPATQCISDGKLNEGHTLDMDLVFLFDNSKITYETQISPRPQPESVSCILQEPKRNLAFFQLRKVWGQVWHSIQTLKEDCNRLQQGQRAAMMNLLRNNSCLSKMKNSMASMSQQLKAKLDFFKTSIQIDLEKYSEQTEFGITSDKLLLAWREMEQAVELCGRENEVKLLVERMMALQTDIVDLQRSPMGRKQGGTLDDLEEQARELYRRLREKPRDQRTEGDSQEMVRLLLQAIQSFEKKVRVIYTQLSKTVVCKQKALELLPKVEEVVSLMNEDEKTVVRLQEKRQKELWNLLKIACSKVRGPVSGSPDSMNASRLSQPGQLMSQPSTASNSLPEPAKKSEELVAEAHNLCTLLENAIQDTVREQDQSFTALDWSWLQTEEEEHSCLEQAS

[4] = biological target: MSK2 (Homo sapiens, UniProt O75676); assay: KinaseProfiler Assay
Sequence of MSK2 (O75676 whole entry): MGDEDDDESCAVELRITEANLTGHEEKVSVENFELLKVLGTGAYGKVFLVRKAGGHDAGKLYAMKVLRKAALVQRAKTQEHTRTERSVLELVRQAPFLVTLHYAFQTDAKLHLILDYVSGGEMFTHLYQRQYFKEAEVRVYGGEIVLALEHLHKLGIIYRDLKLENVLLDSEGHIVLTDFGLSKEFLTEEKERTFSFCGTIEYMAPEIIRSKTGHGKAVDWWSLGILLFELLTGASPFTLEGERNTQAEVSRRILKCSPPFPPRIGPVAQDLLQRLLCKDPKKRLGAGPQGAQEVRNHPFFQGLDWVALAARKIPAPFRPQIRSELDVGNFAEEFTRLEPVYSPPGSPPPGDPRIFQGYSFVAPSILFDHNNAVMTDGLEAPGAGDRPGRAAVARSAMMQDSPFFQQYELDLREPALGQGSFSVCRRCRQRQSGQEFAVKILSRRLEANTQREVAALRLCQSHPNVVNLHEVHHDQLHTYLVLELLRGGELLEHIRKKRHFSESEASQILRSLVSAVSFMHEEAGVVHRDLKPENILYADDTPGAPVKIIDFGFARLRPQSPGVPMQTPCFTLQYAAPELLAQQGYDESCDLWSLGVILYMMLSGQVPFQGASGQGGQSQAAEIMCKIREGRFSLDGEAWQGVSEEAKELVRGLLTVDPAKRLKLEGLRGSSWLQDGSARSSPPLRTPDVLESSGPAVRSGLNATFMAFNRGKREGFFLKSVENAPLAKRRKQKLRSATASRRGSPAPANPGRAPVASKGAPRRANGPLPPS

[5] = biological target: DAPK2 (Homo sapiens, UniProt Q9UIK4); assay: KinaseProfiler Assay
Sequence of DAPK2 (Q9UIK4 whole entry): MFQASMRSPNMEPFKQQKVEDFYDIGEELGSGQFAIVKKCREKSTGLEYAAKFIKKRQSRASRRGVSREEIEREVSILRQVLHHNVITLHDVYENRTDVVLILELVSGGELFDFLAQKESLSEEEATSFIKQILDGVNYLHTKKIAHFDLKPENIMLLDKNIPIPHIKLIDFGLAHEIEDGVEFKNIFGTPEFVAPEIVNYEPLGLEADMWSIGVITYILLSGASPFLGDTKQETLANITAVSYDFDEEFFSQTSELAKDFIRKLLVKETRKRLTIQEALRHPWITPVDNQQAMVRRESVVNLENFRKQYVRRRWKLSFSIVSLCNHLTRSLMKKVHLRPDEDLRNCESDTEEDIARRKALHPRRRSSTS

[6] = biological target: PKCα (Homo sapiens, UniProt P17252); assay: KinaseProfiler Assay
[7] = biological target: PKBβ (Homo sapiens, UniProt P31751); assay: KinaseProfiler Assay
Sequence of PKBβ (P31751 whole entry): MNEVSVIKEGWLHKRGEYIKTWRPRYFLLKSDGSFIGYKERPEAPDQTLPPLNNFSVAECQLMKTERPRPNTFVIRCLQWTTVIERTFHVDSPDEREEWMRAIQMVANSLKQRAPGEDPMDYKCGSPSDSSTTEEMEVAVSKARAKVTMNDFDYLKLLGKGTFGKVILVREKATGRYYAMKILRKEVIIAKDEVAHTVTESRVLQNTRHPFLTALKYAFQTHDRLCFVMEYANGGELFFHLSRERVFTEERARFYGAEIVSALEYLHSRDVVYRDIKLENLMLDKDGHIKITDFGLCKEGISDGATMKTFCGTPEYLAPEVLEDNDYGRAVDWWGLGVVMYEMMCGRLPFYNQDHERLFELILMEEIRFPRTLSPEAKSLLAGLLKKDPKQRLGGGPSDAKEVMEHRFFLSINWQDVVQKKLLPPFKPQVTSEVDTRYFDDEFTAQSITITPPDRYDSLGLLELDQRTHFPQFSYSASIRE

[8] = biological target: Fer (Homo sapiens, UniProt P16591); assay: KinaseProfiler Assay
Sequence of Fer (P16591 whole entry): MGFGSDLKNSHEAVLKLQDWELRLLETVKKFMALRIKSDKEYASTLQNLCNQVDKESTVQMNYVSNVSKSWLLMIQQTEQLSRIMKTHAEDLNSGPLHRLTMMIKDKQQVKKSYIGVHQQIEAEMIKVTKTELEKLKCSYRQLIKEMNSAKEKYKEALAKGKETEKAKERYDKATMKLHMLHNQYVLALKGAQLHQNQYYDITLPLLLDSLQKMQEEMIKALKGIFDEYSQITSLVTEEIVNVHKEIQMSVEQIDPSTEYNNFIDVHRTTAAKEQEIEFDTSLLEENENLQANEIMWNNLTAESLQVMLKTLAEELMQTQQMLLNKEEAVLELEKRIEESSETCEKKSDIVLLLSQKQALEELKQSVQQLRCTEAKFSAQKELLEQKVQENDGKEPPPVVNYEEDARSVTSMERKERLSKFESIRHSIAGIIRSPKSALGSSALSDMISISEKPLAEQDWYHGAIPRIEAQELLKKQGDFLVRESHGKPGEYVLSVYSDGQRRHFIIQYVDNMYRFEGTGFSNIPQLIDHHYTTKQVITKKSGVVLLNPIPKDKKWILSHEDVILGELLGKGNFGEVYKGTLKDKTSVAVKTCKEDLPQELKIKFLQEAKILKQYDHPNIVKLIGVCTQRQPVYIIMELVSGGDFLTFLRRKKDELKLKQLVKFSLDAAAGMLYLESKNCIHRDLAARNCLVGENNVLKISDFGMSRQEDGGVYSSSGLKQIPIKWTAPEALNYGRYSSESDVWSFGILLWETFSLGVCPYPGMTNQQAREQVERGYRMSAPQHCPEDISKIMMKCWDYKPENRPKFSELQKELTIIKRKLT

[9] = biological target: IRAK1 (Homo sapiens, UniProt P51617); assay: KinaseProfiler Assay
[10] = biological target: T2, PhKγ2 (Homo sapiens, UniProt P15735); assay: KinaseProfiler Assay
T2 sequence (P15735 1-406): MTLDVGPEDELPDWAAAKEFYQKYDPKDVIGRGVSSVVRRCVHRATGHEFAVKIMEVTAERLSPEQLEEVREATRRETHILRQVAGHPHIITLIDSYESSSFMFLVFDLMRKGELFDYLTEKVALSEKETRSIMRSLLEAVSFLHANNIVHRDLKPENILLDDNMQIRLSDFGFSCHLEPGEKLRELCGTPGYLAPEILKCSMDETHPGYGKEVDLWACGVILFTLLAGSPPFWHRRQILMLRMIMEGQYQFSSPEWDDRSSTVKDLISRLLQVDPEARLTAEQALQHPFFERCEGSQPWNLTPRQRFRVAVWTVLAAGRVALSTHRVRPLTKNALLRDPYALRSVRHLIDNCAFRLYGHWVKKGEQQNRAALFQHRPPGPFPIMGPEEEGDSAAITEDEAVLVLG

[11] = biological target: CK1δ (Homo sapiens, UniProt P48730); assay: KinaseProfiler Assay
[12] = biological target: Fes (Homo sapiens, UniProt P07332); assay: KinaseProfiler Assay
[13] = biological target: HIPK2 (Homo sapiens, UniProt Q9H2X6); assay: KinaseProfiler Assay
[14] = biological target: IR (Homo sapiens, UniProt P06213); assay: KinaseProfiler Assay
Sequence of IR (P06213 28-1382): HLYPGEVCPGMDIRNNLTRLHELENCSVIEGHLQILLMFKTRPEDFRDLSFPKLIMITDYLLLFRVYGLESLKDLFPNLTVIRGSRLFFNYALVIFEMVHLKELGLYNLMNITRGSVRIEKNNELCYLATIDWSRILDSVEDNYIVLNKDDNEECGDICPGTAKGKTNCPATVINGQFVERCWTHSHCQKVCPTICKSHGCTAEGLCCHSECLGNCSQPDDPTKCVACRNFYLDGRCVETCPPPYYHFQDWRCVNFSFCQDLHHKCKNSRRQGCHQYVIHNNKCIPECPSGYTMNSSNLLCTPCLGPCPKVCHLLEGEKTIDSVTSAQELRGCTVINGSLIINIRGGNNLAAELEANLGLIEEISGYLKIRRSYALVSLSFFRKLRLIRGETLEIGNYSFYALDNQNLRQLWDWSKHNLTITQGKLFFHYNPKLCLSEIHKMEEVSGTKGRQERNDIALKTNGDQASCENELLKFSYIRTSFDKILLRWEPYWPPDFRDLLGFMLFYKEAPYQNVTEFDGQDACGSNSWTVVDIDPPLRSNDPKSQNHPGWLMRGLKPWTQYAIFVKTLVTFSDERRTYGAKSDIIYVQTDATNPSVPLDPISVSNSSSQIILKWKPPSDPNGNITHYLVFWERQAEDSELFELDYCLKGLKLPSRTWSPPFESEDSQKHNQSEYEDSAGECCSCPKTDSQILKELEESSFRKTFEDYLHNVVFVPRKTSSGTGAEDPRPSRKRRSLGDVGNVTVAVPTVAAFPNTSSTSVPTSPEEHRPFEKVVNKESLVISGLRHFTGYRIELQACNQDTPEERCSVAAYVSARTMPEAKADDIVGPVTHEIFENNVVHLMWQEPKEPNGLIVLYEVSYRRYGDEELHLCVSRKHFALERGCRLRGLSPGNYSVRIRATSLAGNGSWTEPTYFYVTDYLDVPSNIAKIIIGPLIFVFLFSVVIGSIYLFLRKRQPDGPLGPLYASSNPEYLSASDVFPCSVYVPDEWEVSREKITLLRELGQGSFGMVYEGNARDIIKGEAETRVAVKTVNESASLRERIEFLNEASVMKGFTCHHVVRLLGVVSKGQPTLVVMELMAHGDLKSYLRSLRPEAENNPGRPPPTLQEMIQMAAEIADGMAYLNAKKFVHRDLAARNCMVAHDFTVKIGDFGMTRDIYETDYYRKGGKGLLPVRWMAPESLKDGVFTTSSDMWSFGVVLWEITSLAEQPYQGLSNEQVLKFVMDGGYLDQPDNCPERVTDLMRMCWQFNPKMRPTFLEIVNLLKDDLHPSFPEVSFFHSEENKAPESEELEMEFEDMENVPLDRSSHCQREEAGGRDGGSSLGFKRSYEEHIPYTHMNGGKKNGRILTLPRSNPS

[15] = biological target: Syk (Homo sapiens, UniProt P43405); assay: KinaseProfiler Assay
[16] = biological target: MAPKAP-K2 (Homo sapiens, UniProt P49137); assay: KinaseProfiler Assay
Sequence of MAPKAP-K2 (P49137 whole entry): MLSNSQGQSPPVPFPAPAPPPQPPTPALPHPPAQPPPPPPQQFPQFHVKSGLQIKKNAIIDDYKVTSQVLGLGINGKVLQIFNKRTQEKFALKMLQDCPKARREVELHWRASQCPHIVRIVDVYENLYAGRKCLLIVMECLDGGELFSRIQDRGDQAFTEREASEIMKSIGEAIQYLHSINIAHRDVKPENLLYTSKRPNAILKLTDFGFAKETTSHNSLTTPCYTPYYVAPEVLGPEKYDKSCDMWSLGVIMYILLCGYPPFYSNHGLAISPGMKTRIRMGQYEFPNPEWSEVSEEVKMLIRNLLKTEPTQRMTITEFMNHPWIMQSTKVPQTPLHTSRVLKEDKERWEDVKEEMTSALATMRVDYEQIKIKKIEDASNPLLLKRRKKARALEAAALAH

Sequence of MSSK1 (Q9UPE1 whole entry): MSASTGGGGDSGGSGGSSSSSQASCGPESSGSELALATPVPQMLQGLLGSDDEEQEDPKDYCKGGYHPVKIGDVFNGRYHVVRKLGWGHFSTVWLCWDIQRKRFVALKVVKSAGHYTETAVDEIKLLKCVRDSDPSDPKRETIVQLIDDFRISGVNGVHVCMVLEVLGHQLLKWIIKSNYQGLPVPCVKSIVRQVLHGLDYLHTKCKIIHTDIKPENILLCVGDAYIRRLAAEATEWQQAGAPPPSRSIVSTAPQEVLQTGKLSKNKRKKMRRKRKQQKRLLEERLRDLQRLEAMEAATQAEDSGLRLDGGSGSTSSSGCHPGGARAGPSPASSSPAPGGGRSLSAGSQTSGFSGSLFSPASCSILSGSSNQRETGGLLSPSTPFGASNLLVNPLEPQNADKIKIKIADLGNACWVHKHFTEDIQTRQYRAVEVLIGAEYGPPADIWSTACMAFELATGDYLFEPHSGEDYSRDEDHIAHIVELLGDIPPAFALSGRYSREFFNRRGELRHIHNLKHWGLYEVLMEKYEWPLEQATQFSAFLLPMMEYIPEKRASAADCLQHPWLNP

Compound: COc1cc(O)c(CC=C(C)C)c(O)c1C(=O)/C=C/c1ccc(O)cc1 [Xanthohumol, xanthohumol]
- Kinase activity, % of Control ([1]; 1 ug/ml): 47 % of Control
- Kinase activity, % of Control ([1]; 5 ug/ml): 11 % of Control
- Kinase activity, % of Control ([1]; 25 ug/ml): 7 % of Control
- Kinase activity, % of Control ([1]; 50 ug/ml): 5 % of Control
- adipogenic / lipogenic response [2]: comparable to indomethacin and troglitazone
- Kinase activity, % of Control ([3]; 1 ug/ml): 145 % of Control
- Kinase activity, % of Control ([3]; 5 ug/ml): 118 % of Control
- Kinase activity, % of Control ([3]; 25 ug/ml): 61 % of Control
- Kinase activity, % of Control ([3]; 50 ug/ml): 44 % of Control
- Kinase activity, % of Control ([4]; 1 ug/ml): 126 % of Control
- Kinase activity, % of Control ([4]; 5 ug/ml): 61 % of Control
- Kinase activity, % of Control ([4]; 25 ug/ml): 8 % of Control
- Kinase activity, % of Control ([4]; 50 ug/ml): 19 % of Control
- Kinase activity, % of Control ([5]; 1 ug/ml): 105 % of Control
- Kinase activity, % of Control ([5]; 5 ug/ml): 88 % of Control
- Kinase activity, % of Control ([5]; 25 ug/ml): 45 % of Control
- Kinase activity, % of Control ([5]; 50 ug/ml): 26 % of Control
- Kinase activity, % of Control ([6]; 1 ug/ml): 100 % of Control
- Kinase activity, % of Control ([6]; 5 ug/ml): 100 % of Control
- Kinase activity, % of Control ([6]; 50 ug/ml): 83 % of Control
- Kinase activity, % of Control ([7]; 1 ug/ml): 146 % of Control
- Kinase activity, % of Control ([7]; 5 ug/ml): 102 % of Control
- Kinase activity, % of Control ([7]; 25 ug/ml): 1 % of Control
- Kinase activity, % of Control ([7]; 50 ug/ml): 8 % of Control
- Kinase activity, % of Control ([8]; 1 ug/ml): 55 % of Control
- Kinase activity, % of Control ([8]; 5 ug/ml): 20 % of Control
- Kinase activity, % of Control ([8]; 25 ug/ml): 10 % of Control
- Kinase activity, % of Control ([8]; 50 ug/ml): 1 % of Control
- Kinase activity, % of Control ([9]; 1 ug/ml): 129 % of Control
- Kinase activity, % of Control ([9]; 5 ug/ml): 104 % of Control
- Kinase activity, % of Control ([9]; 50 ug/ml): 36 % of Control
- Kinase activity, % of Control ([10]; 1 ug/ml): 106 % of Control
- Kinase activity, % of Control ([10]; 5 ug/ml): 60 % of Control
- Kinase activity, % of Control ([10]; 25 ug/ml): 11 % of Control
- Kinase activity, % of Control ([10]; 50 ug/ml): 5 % of Control
- Kinase activity, % of Control ([11]; 5 ug/ml): 32 % of Control
- Kinase activity, % of Control ([11]; 25 ug/ml): 16 % of Control
- Kinase activity, % of Control ([11]; 50 ug/ml): 12 % of Control
- Kinase activity, % of Control ([12]; 1 ug/ml): 131 % of Control
- Kinase activity, % of Control ([12]; 5 ug/ml): 106 % of Control
- Kinase activity, % of Control ([12]; 25 ug/ml): 102 % of Control
- Kinase activity, % of Control ([12]; 50 ug/ml): 26 % of Control
- Kinase activity, % of Control ([13]; 1 ug/ml): 110 % of Control
- Kinase activity, % of Control ([13]; 5 ug/ml): 98 % of Control
- Kinase activity, % of Control ([14]; 1 ug/ml): 120 % of Control
- Kinase activity, % of Control ([14]; 5 ug/ml): 108 % of Control
- Kinase activity, % of Control ([14]; 50 ug/ml): 103 % of Control
- Kinase activity, % of Control ([15]; 1 ug/ml): 95 % of Control
- Kinase activity, % of Control ([15]; 5 ug/ml): 60 % of Control
- Kinase activity, % of Control ([15]; 25 ug/ml): 32 % of Control
- Kinase activity, % of Control ([15]; 50 ug/ml): 17 % of Control
- Kinase activity, % of Control ([16]; 1 ug/ml): 99 % of Control
- Kinase activity, % of Control ([16]; 5 ug/ml): 95 % of Control
- Kinase activity, % of Control ([16]; 25 ug/ml): 6 % of Control
- Kinase activity, % of Control ([16]; 50 ug/ml): 8 % of Control
